Test results published in paper PMC10492809, “A Bischler-Napieralski and homo-Mannich sequence enables diversified syntheses of sarpagine alkaloids and analogues” (Nature Communications, 2023).
Several values for one entry are separate records, joined by “and”; a condition that tells them apart may be missing. Equal entries are not always repeated. Where two headings read alike, the source gives them in different places.

Key:
Type in all cases: cell-based
cancer cell lines = assay: In vitro cancer cell assays (antiproliferation, cell line not given); details: for loss in antiproliferation activity on replacing the aldehyde group: SAR statement in words
Description: (§1) All cell lines were cultured at 37 °C with 5% CO2 in a humidified incubator. HeLa cells were grown in MEM (Gibco) supplemented with 10% fetal bovine serum (FBS, Hyclone) and 1% penicillin/streptomycin (Gibco). MIA PaCa-2, MDA-MB-231, A549, MCF-7, A375 and BEAS-2B cells were grown in DMEM (Gibco) supplemented with 10% FBS and 1% penicillin/streptomycin. CT26, and HCT116 cells were grown in RPMI-1640 supplemented with 10% FBS and 1% penicillin/streptomycin. All cell lines were purchased from the National Collection of Authenticated Cell Cultures (China).
(§2) The antiproliferative activities of the prepared compounds against tested cell lines were evaluated using a standard (MTT)-based colorimetric assay. Cells were plated at a density of 3000 cells/well in 96-well plates and allowed to adhere overnight. Then cells were treated with varying concentrations of synthesized compounds for 72 h. At the end of treatment, 20 μL of thiazolyl blue tetrazolium bromide (MTT) solution (5 mg/mL) was added to each well. Cells were incubated for an additional 4 h at 37 °C and then the medium was removed and replaced with 200 μL of DMSO. The absorbance (OD490) was read on a microplate reader (SpectraMax i3x, Molecular Devices, US). In all experiments, three replicate wells were used for each drug concentration. Each assay was performed at least three times. The IC50 values were calculated by GraphPad Prism 9, which were the mean values derived from three independent experiments.

CT26 = assay: MTT cell viability assay, CT26
Description: as §1, §2

Hela = assay: MTT cell viability assay, Hela
Description: as §1, §2

A549 = assay: MTT cell viability assay, A549
Description: as §1, §2

MIA PaCa-2 = assay: MTT cell viability assay, MIA PaCa-2
Description: as §1, §2

HCT 116 = assay: MTT cell viability assay, HCT 116
Description: as §1, §2

A375 = assay: MTT cell viability assay, A375
Description: as §1, §2

MCF-7 = assay: MTT cell viability assay, MCF-7
Description: as §1, §2

MDA-MB-231 = assay: MTT cell viability assay, MDA-MB-231
Description: as §1, §2

[1] = MTT cytotoxicity towards normal cells, BEAS-2B; details: human
Description: as §1, §2

[2] = system: lung epithelial BEAS-2B cells; assay: MTT cytotoxicity towards normal cells, BEAS-2B; details: for CC50: MTT, 72 h, cytotoxicity towards normal cells, mean of at least three independent experiments; for IC50: source data sheet, single values of three experiments
Description: as §1, §2

[3] = source data sheet, single values of three experiments, read-out: MTT IC50 CT-26
[4] = source data sheet, single values of three experiments, read-out: MTT IC50 Hela
[5] = source data sheet, single values of three experiments, read-out: MTT IC50 A549
[6] = source data sheet, single values of three experiments, read-out: MTT IC50 MIA PaCa-2
[7] = source data sheet, single values of three experiments, read-out: MTT IC50 HCT-116
[8] = source data sheet, single values of three experiments, read-out: MTT IC50 A375
[9] = source data sheet, single values of three experiments, read-out: MTT IC50 MCF-7
[10] = source data sheet, single values of three experiments, read-out: MTT IC50 MDA-MB-231
[11] = MTT, 72 h, mean of at least three independent experiments, read-out: IC50 CT26
[12] = MTT, 72 h, mean of at least three independent experiments, read-out: IC50 Hela
[13] = MTT, 72 h, mean of at least three independent experiments, read-out: IC50 A549
[14] = MTT, 72 h, mean of at least three independent experiments, read-out: IC50 MIA PaCa-2
[15] = MTT, 72 h, mean of at least three independent experiments, read-out: IC50 HCT 116
[16] = MTT, 72 h, mean of at least three independent experiments, read-out: IC50 A375
[17] = MTT, 72 h, mean of at least three independent experiments, read-out: IC50 MCF-7
[18] = MTT, 72 h, mean of at least three independent experiments, read-out: IC50 MDA-MB-231

Row | SMILES | IC50 (CT26; [3]) | IC50 (Hela; [4]) | IC50 (A549; [5]) | IC50 (MIA PaCa-2; [6]) | IC50 (HCT 116; [7]) | IC50 (A375; [8]) | IC50 (MCF-7; [9]) | IC50 (MDA-MB-231; [10]) | IC50 (CT26; [11]) [µM] | IC50 (Hela; [12]) [µM] | IC50 (A549; [13]) [µM] | IC50 (MIA PaCa-2; [14]) [µM] | IC50 (HCT 116; [15]) [µM] | IC50 (A375; [16]) [µM] | IC50 (MCF-7; [17]) [µM] | IC50 (MDA-MB-231; [18]) [µM] | CC50 [2] [µM] | IC50 [2] [µM] | further results
1 | C=C=C1CN2[C@H]3C[C@H]1[C@H](C(=O)O)[C@@H]2Cc1c3n(S(=O)(=O)c2ccc(C)cc2)c2ccccc12 [Compound 15an] |  |  |  |  |  |  |  |  |  |  |  |  |  |  |  |  |  |  | loss in antiproliferation activity on replacing the aldehyde group (cancer cell lines): complete
2 | CC=C1CN2C3CC1C(C=O)C2Cc1c3n(C)c2ccccc12 (stereo not drawn) [Na-methylvellosimine (5), Na-methylvellosimine] | 20.7 µM and 23.8 µM | 21.9 µM and 20.4 µM | 19 µM and 20.4 µM | 23.5 µM and 27.3 µM | 22.5 µM and 23 µM | 25.9 µM and 27.8 µM | 40.8 µM and 39.9 µM | 22.8 µM and 18.8 µM |  |  |  |  |  |  |  |  |  |  | IC50 (CT26; Mus musculus, CT26, 72 h, MTT, 72 h, mean of at least three independent experiments, read-out: IC50 CT26): 21.4 µM; IC50 (CT26; Mus musculus, CT26, source data sheet, single values of three experiments, read-out: MTT IC50 CT-26): 19.6 µM; IC50 (Hela; Homo sapiens, HeLa, 72 h, MTT, 72 h, mean of at least three independent experiments, read-out: IC50 Hela): 22.3 µM; IC50 (Hela; Homo sapiens, HeLa, source data sheet, single values of three experiments, read-out: MTT IC50 Hela): 24.5 µM; IC50 (A549; Homo sapiens, A549, 72 h, MTT, 72 h, mean of at least three independent experiments, read-out: IC50 A549): 20.9 µM; IC50 (A549; Homo sapiens, A549, source data sheet, single values of three experiments, read-out: MTT IC50 A549): 23.1 µM; IC50 (MIA PaCa-2; Homo sapiens, MIA PaCa-2, 72 h, MTT, 72 h, mean of at least three independent experiments, read-out: IC50 MIA PaCa-2): 26.7 µM; IC50 (MIA PaCa-2; Homo sapiens, MIA PaCa-2, source data sheet, single values of three experiments, read-out: MTT IC50 MIA PaCa-2): 29.2 µM; IC50 (HCT 116; Homo sapiens, HCT-116, 72 h, MTT, 72 h, mean of at least three independent experiments, read-out: IC50 HCT 116): 23.6 µM; IC50 (HCT 116; Homo sapiens, HCT-116, source data sheet, single values of three experiments, read-out: MTT IC50 HCT-116): 25.2 µM; IC50 (A375; Homo sapiens, A-375, 72 h, MTT, 72 h, mean of at least three independent experiments, read-out: IC50 A375): 27.6 µM; IC50 (A375; Homo sapiens, A-375, source data sheet, single values of three experiments, read-out: MTT IC50 A375): 29.2 µM; antiproliferation activity in the in vitro cancer cell assays (cancer cell lines; result in words): moderate antiproliferation activity; IC50 (MCF-7; Homo sapiens, MCF7, 72 h, MTT, 72 h, mean of at least three independent experiments, read-out: IC50 MCF-7): 41.8 µM; IC50 (MCF-7; Homo sapiens, MCF7, source data sheet, single values of three experiments, read-out: MTT IC50 MCF-7): 44.7 µM; IC50 (MDA-MB-231; Homo sapiens, MDA-MB-231, 72 h, MTT, 72 h, mean of at least three independent experiments, read-out: IC50 MDA-MB-231): 20.7 µM; IC50 (MDA-MB-231; Homo sapiens, MDA-MB-231, source data sheet, single values of three experiments, read-out: MTT IC50 MDA-MB-231): 20.4 µM; IC50 at 72 h ([1]; BEAS-2B lung epithelial cells (normal cells), source data sheet, single values of three experiments): > 100 µM; CC50 at 72 h ([1]; BEAS-2B lung epithelial cells, MTT, 72 h, cytotoxicity towards normal cells, mean of at least three independent experiments): > 100 µM
3 | C=C=C1CN2[C@H]3C[C@H]1[C@H](C=O)[C@@H]2Cc1c3n(S(=O)(=O)c2ccc(C(F)(F)F)cc2)c2ccccc12 [Compound 15am] |  |  |  |  |  |  |  |  |  |  |  |  |  |  |  |  |  |  | IC50 (cancer cell lines; cell line not given): > 50 µM
4 | C=C=C1CN2[C@H]3C[C@H]1[C@H](CO)[C@@H]2Cc1c3n(S(=O)(=O)c2ccc(C)cc2)c2ccccc12 [Compound 15ao] |  |  |  |  |  |  |  |  |  |  |  |  |  |  |  |  |  |  | loss in antiproliferation activity on replacing the aldehyde group (cancer cell lines): complete
5 | CC=C1CN2C3CC1C(C=O)C2Cc1c3n(S(=O)(=O)c2ccc(C)cc2)c2ccccc12 (stereo not drawn) [Compound 15ar] | 10.9 µM and 8.18 µM and 9.11 µM | 7.46 µM and 6.04 µM and 4.98 µM | 16.5 µM and 14 µM and 11.7 µM | 14.9 µM and 13 µM and 12 µM | 8.05 µM and 5.83 µM and 7.01 µM | 5.71 µM and 3.87 µM and 4.03 µM | 19.9 µM and 15.7 µM and 17.7 µM | 5.08 µM and 4.02 µM and 4.8 µM | 9.39 | 6.16 | 14.1 | 13.3 | 6.96 | 4.54 | 17.8 | 4.63 | > 100 | > 100 | 
6 | C=C=C1CN2[C@H]3C[C@H]1[C@H](C=O)[C@@H]2Cc1c3n(S(=O)(=O)c2ccc(C)cc2)c2ccccc12 [Compound 15ad] | 10 µM and 7.29 µM and 7.11 µM | 5.18 µM and 4.35 µM and 3.58 µM | 9.24 µM and 12.1 µM and 10 µM | 12.3 µM and 14 µM and 10.1 µM | 6.65 µM and 4.08 µM and 5.02 µM | 5.01 µM and 2.69 µM and 3.01 µM | 10.5 µM and 14 µM and 9.22 µM | 3.01 µM and 3.83 µM and 2.38 µM | 8.14 | 4.37 | 10.4 | 12.1 | 5.25 | 3.57 | 11.3 | 3.07 | > 100 | > 100 | 
7 | C=C=C1CN2[C@H]3C[C@H]1[C@H](C=O)[C@@H]2Cc1c3n(S(=O)(=O)c2ccc(C)cc2)c2cccc(Br)c12 [Compound 15ae] | 32.8 µM and 27.5 µM and 30 µM | 34.5 µM and 31.3 µM and 30.4 µM | 44.1 µM and 40.9 µM and 43.6 µM | 39.9 µM and 44.1 µM and 36.8 µM | 30 µM and 26.1 µM and 27.9 µM | 23.6 µM and 17.1 µM and 20.5 µM | 35.2 µM and 29.7 µM and 31.4 µM | 25.1 µM and 24.3 µM and 26.8 µM | 30.1 | 32.1 | 42.9 | 40.3 | 28 | 20.4 | 32.1 | 25.4 | > 100 | > 100 | 
8 | C=C=C1CN2[C@H]3C[C@H]1[C@H](C(=O)C=C)[C@@H]2Cc1c3n(S(=O)(=O)c2ccc(C)cc2)c2ccccc12 [Compound 15aq] | 15.9 µM and 17.2 µM and 14.1 µM | 12.4 µM and 9.52 µM and 10.6 µM | 22.2 µM and 18.2 µM and 17.1 µM | 22.2 µM and 19.5 µM and 18.9 µM | 12.2 µM and 8.29 µM and 10.3 µM | 9.41 µM and 6.42 µM and 6.61 µM | 24.3 µM and 27.2 µM and 22.8 µM | 10.1 µM and 8.05 µM and 6.22 µM | 15.7 | 10.9 | 19.2 | 20.2 | 10.3 | 7.48 | 24.8 | 8.12 | > 100 | > 100 | 
